Source: patent publication US10730826B2, “Ketone inhibitors of lysine gingipain” (CORTEXYME, INC., priority 2016, dated 2020)
“And” between values parts separate entries of the source, which are not always exact repeats. Equal entries are not always repeated. Where two headings read alike, the source gives them in different places.

Assays:
Cathepsin B = Cathepsin B (Homo sapiens (Human), UniProt P07858); assay: Cathepsin B inhibition assay; type: biochemical; conditions: read-out: IC50 (nM) CatB
Experimental: (§1) The capacities of compounds of the present invention to inhibit the activity of cathepsins B, H, K, L, and S were measured in similar assays. Boc-Leu-Arg-Arg-AMC (20 μM) in sodium acetate buffer (50 mM, pH 5.5) containing DTT (1 mM) and EDTA (2 mM) was used for the Cathepsin B assay. L-Arg-AMC (20 μM) in sodium acetate buffer (50 mM, pH 5.5) containing DTT (1 mM) and EDTA (2 mM) was used for the Cathepsin H assay. Z-Phe-Arg-AMC (10 μM) in HEPES buffer (50 mM, pH 7.4) containing DTT (2.5 mM) and EDTA (1 mM) was used for the Cathepsin K assay. Z-Phe-Arg-AMC (20 μM) in sodium acetate buffer (50 mM, pH 5.5) containing DTT (1 mM) and EDTA (2 mM) was used for the Cathepsin L assay. Z-Leu-Arg-AMC (10 μM) in sodium acetate buffer (25 mM, pH 4.5) containing DTT (2.5 mM) and NaCl (50 mM) was used for the Cathepsin S assay. The capacities of the compounds to inhibit the activity of cathepsins F, V, and Z were also measured.
(§2) Further assays to measure the inhibitory activity of compounds of the present invention against Kgp and cathepsins B, H, K, L, and S were conducted as described in Example 66. The capacities of the compounds to inhibit the activity of cathepsins F, V, and Z were also measured.

Cathepsin S = Cathepsin S (Homo sapiens (Human), UniProt P25774); assay: Cathepsin S inhibition assay; type: biochemical; conditions: read-out: IC50 (nM) CatS
Experimental: as §1, §2

Cathepsin K = Cathepsin K (Homo sapiens (Human), UniProt P43235); assay: Cathepsin K inhibition assay; type: biochemical; conditions: read-out: IC50 (nM) CatK
Experimental: as §1, §2

Cathepsin L = Cathepsin L (Homo sapiens (Human), UniProt P07711); assay: Cathepsin L inhibition assay; type: biochemical; conditions: read-out: IC50 (nM) CatL
Experimental: as §1, §2

Cathepsin H = Cathepsin H (Homo sapiens (Human), UniProt P09668); assay: Cathepsin H inhibition assay; type: biochemical; conditions: read-out: IC50 (nM) CatH
Experimental: as §1, §2

cathepsin F = cathepsin F (Homo sapiens (Human), UniProt Q9UBX1); assay: Cathepsin F inhibition assay; type: biochemical; conditions: Table 4; read-out: IC50 (nM) CatF
Experimental: as §1, §2

cathepsin V = cathepsin V (Homo sapiens (Human), UniProt O60911); assay: Cathepsin V inhibition assay; type: biochemical; conditions: Table 4; read-out: IC50 (nM) CatV
Experimental: as §1, §2

cathepsin Z = cathepsin Z (Homo sapiens (Human), UniProt Q9UBR2); assay: Cathepsin Z inhibition assay; type: biochemical; conditions: Table 4; read-out: IC50 (nM) CatZ
Experimental: as §1, §2

lysine gingipain (Kgp) [1] = target: lysine gingipain (Kgp) (Porphyromonas gingivalis (Bacteroides gingivalis), UniProt P72194); assay: biochemical; type: biochemical; conditions: IC50 (nM) Kgp
Experimental: (§3) The specific assay conditions were as follows. Buffer: pH=7.5, 100 mM Tris-HCl, 75 mM NaCl, 2.5 mM CaCl2), 10 mM cysteine, 1% DMSO after all additions. Protein: 0.1 nM Kgp, isolated from culture of Porphyromonas gingivalis, as described by Pike et al. (J. Biol. Chem. 1994, 269(1), 406), and Potempa and Nguyen (Current Protocols in Protein Science. 2007, 21.20.1-21.20.27). Fluorogenic substrate: 10 μM Z-His-Glu-Lys-MCA. Time=90 minutes. Temperature=37° C.
as §2

lysine gingipain (Kgp) [2] = assay: biochemical; type: biochemical, Porphyromonas gingivalis; conditions: as compared to reference compound 73
Experimental: as §3, §2

[3] = Pharmacokinetics in male CD-1 mice dosed p.o.; type: in vivo; conditions: p.o. 10 mg/kg, compared to reference compound 73
Kgp [4] = target: T1, Kgp (Porphyromonas gingivalis (Bacteroides gingivalis), UniProt Q51817); assay: Activity probe labelling of Kgp in P. gingivalis-infected Jurkat cells (SDS-PAGE); type: cell-based; conditions: infected Jurkat cells, preincubation before probe 15a
Source text: The identity of this labeled protein in P. gingivalis-infected cells was confirmed to be Kgp by Western blot.

Kgp [5] = target: T1, Kgp; assay: Cy5 activity-based probe detection of Kgp in P. gingivalis lysate; type: binding
Experimental: It has a warhead that binds to the Kgp active site, a peptide-based core, and a Cy5 fluorophore for detection. Labeled target proteins can be visualized by biochemical separation of a sample with fractionation by 2-D gel electrophoresis and detection of fluorescent signals from Cy5 at the appropriate excitation and emission wavelength. Incubation of a fixed concentration of the probe following binding of Kgp to a test compound (e.g., a candidate Kgp inhibitor) results in binding of the activity probe to Kgp active sites not already bound by the test compound.
10^8 bacteria were collected and centrifuged at 5000 g for 10 min at 4° C., and the supernatant was discarded. The bacterial cell pellet was lysed with 1 mL of B-Per lysis buffer (Thermo Fischer) on ice for 10 min, then centrifuged for 10 min at 14000 g, 4° C. Supernatant-containing protein lysate was collected. Biological samples were lysed with B-Per lysis buffer for 10 min at 4° C.
Biological samples, P. gingivalis lysate or purified Kgp were incubated with quenchable Cy5 probe compound 71 (1 μM) for 1 h at 37° C. with shaking. Then, samples were denatured with NUPAGE LDS sample buffer (Thermo Fisher) containing 50 mM DTT at 95° C. for 10 min and subjected to SDS-PAGE electrophoresis using a Criterion 4-15% precast gel (Bio-Rad) and Tris/Glycine/SDS running buffer (Bio-Rad). The gel was run at 75V for 10 min and then 125V for 1.5 h. The gel was then removed from the plastic cassette and subjected to Cy5 visualization with a ChemiDoc imaging system (Bio-Rad).
Samples were labeled with quenchable Cy5 probe compound 71 (1 μM) for 1 h at 37° C. with shaking. For immunoprecipitation of Cy5 labeled Kgp, the samples were then incubated with 10 μg of rabbit polyclonal CAB102 antibody with rotation overnight at 4° C. Then, samples were incubated with prewashed Dynabead Protein G beads with rotation for 20 min at room temperature. The samples were washed 4 times with 200 μL of washing buffer, using a magnetic rack. […]

[6] = in vivo, po; cited from earlier work

| Structure (SMILES) | IC50 (Cathepsin B; Table 4) [nM] | IC50 (Cathepsin S; Table 4) [nM] | IC50 (Cathepsin K; Table 4) [nM] | IC50 (Cathepsin L; Table 4) [nM] | IC50 (Cathepsin H; Table 4) [nM] | IC50 (cathepsin F) [nM] | IC50 (cathepsin V) [nM] | IC50 (lysine gingipain (Kgp) [1]; Table 4) [nM] | other results |
| --- | --- | --- | --- | --- | --- | --- | --- | --- | --- |
| NCCCC[C@H](NC(=O)C1CCCC1)C(=O)COc1c(F)c(F)cc(F)c1F (stereo in doubt) [Compound 73, N-[7-amino-2-oxo-1-(2,3,5,6-tetrafluorophenoxy)heptan-3-yl]cyclopentanecarboxamide, reference compound] | 485 | > 10000 | 20 | 700 | 110 | 500 | 5720 | – | IC50 (Cathepsin B; Table 3): 485 nM; IC50 (Cathepsin S; Table 3): 9980 nM; IC50 (Cathepsin K; Table 3): 20 nM; IC50 (Cathepsin L; Table 3): 700 nM; IC50 (Cathepsin H; Table 3): 110 nM; IC50 (cathepsin Z): > 10000 nM |
| NCCCCC(NC(=O)C1CCCC1)C(=O)COc1c(F)cccc1F (stereo not drawn) [Compound 2a] | > 10000 | > 10000 | 2290 | > 10000 | 1550 | – | > 10000 | < 0.05 | IC50 (lysine gingipain (Kgp) [1]; Table 3): ≤ 0.05 nM and 0.11 nM; IC50 (Cathepsin B; Table 3): > 10000 nM; IC50 (Cathepsin S; Table 3): > 100000 nM; IC50 (Cathepsin K; Table 3): 2290 nM; IC50 (Cathepsin L; Table 3): > 100000 nM; IC50 (Cathepsin H; Table 3): 1550 nM |
| NCCCCC(NC(=O)C1CCCC1)C(=O)COC(C(F)(F)F)C(F)(F)F (stereo not drawn) [Compound 18a] | > 10000 | > 10000 | > 10000 | > 10000 | > 10000 | > 10000 | > 10000 | 0.5 | IC50 (lysine gingipain (Kgp) [1]; Table 3): 0.5 nM |
| COC(C)(C)C(=O)N[C@@H](CCCCN)C(=O)COc1c(F)ccc(F)c1F [Compound 47, (S)—N-(7-amino-2-oxo-1-(2,3,6-trifluorophenoxy)heptan-3-yl)-2-methoxy-2-methylpropanamide] | – | – | – | – | – | – | – | – | selectivity for Kgp over endogenous cathepsins (lysine gingipain (Kgp) [2]): far more selective; concentrations in the brain and cerebrospinal fluid (CSF) [3]: increased concentrations in the brain and cerebrospinal fluid (CSF); oral availability [3]: improved oral availability; plasma concentrations [3]: increased plasma concentrations |
| COC(C)(C)C(=O)NC(CCCCN)C(=O)COc1c(F)ccc(F)c1F (stereo not drawn) [Compound 47a] | > 10000 | > 10000 | 9000 | > 10000 | > 10000 | > 10000 | > 10000 | 0.06 | – |
| NCCCCC(NC(=O)c1ccccn1)C(=O)COc1c(F)ccc(F)c1F (stereo not drawn) [Compound 50a] | > 10000 | > 10000 | 1000 | > 10000 | > 10000 | > 10000 | > 10000 | 0.09 | – |
| NCCCCC(NC(=O)c1ccc(F)nc1)C(=O)COc1ccon1 (stereo not drawn) [Compound 55a] | > 10000 | > 10000 | 1000 | 6380 | > 10000 | – | > 10000 | 0.12 | – |
| COC(C)(C)C(=O)N[C@@H](CCCCN)C(=O)COC(C(F)(F)F)C(F)(F)F [Compound 69, (S)—N-(7-amino-1-((1,1,1,3,3,3-hexafluoropropan-2-yl)oxy)-2-oxoheptan-3-yl)-2-methoxy-2-methylpropanamide] | – | – | – | – | – | – | – | – | selectivity for Kgp over endogenous cathepsins (lysine gingipain (Kgp) [2]): far more selective; concentrations in the brain and cerebrospinal fluid (CSF) [3]: increased concentrations in the brain and cerebrospinal fluid (CSF); oral availability [3]: improved oral availability; plasma concentrations [3]: increased plasma concentrations |
| COC(C)(C)C(=O)NC(CCCCN)C(=O)COC(C(F)(F)F)C(F)(F)F (stereo not drawn) [Compound 69a] | > 10000 | > 10000 | > 10000 | > 10000 | > 10000 | > 10000 | – | 0.21 | IC50 (cathepsin Z): > 10000 nM |
| C[N+]1=C(/C=C/C=C/C=C2\N(CCCCCC(=O)NCc3cn(-c4cccc(C(=O)N[C@@H](CCCCN)C(=O)COc5c(F)cccc5F)c4)nn3)c3ccc(S(=O)(=O)O)cc3C2(C)C)C(C)(C)c2cc(S(=O)(=O)O)ccc21 [Compound 70] | – | – | – | – | – | – | – | – | blocking of probe 15a binding to Kgp by preincubation (Kgp [4]): blocked the binding of the probe 15a to Kgp |
| C[N+]1=C(/C=C/C=C/C=C2\N(CCCCCC(=O)NCc3cn(-c4cccc(C(=O)N[C@@H](CCCCN)C(=O)COc5c(F)cc(CNC(=O)C6CCN(S(=O)(=O)c7ccccc7-c7c8cc/c(=[N+]9\CCc%10cc(S(=O)(=O)O)ccc%109)cc-8oc8cc(N9CCc%10cc(S(=O)(=O)O)ccc%109)ccc78)CC6)cc5F)c4)nn3)c3ccc(S(=O)(=O)O)cc3C2(C)C)C(C)(C)c2cc(S(=O)(=O)O)ccc21 [Compound 71] | – | – | – | – | – | – | – | – | specificity of detection (Kgp [5]; W83 vs Kgp knockout strain): specific for Kgp; apparent limit of detection of Kgp (Kgp [5]; probe 1 μM): 500 CFU |
| CN(NC(=O)CC[C@H](NC(=O)OCc1ccccc1)C(=O)N[C@@H](CCCCN)C(=O)C(=O)NCc1ccccc1)c1ccccc1 [Kyt-36] | – | – | – | – | – | – | – | – | half-life [6]: increases the half-life |
